Results: patent US8552161B2, “Saponin compounds, methods of preparation thereof, use thereof and pharmaceutical compositions” (Uniwersytet W Bialymstoku, priority 2009, dated 2013)

Tests used:
[1] = system: malignant melanoma cell line G-361; test: Calcein AM cytotoxicity assay, G-361; format: cell-based, human; settings: 72 h, means ± SD, three independent experiments in triplicate
Experimental: (§1) Stock solutions (10 mmol/l) of the tested compounds were prepared by dissolving relevant quantity of the substance in DMSO. […] Calcein AM was obtained from Molecular Probes (Invitrogen Corporation, CA, USA).
(§2) All cell lines were cultured in DMEM medium (Sigma, Mo., USA). Medium was supplemented with 10% heat-inactivated fetal bovine serum, 2 mmol/l L-glutamine and 1% penicillin-streptomycin. The cell lines were maintained under standard cell culture conditions at 37° C. and 5% CO2 in a humid environment. Cells were subcultured twice or three times a week using the standard trypsinization procedure.
(§3) All cell lines were cultured in DMEM medium (Sigma, Mo., USA) supplemented with 10% fetal calf serum, 2 mM glutamine, 100 U/ml penicillin and 100 μg/ml streptomycin, at 37° C. in a fully humidified atmosphere containing 5% CO2. Suspensions of these lines (ca. 1.0×10^5 cells/ml) were placed in 96-well microtitre plates and after 3 h of stabilization the tested compounds were added in serially diluted concentrations. Saponins were dissolved in dimethylsulfoxide (DMSO) before addition to cultures. Control cultures were treated with DMSO alone. The final concentration of DMSO in the reaction mixtures never exceeded 0.6%. Four-fold dilutions of the intended test concentration were added at time zero in 20 μl aliquots to the microtitre plate wells. Usually, each test compound was evaluated at six 4-fold dilutions and in routine testing; the highest well concentration was 50 μM, although this varied in a few cases, depending on the test compound. After 72 h of culture, the cells were incubated with Calcein AM solution (Molecular Probes) for 1 h. The fluorescence of viable cells was quantified using a Fluoroscan Ascent instrument (Microsystems).

[2] = system: cervical carcinoma cell line HeLa; test: Calcein AM cytotoxicity assay, HeLa; format: cell-based; settings: 72 h, means ± SD, three independent experiments in triplicate
Experimental: as §1, §2, §3

[3] = system: lung carcinoma cell line A549; test: Calcein AM cytotoxicity assay, A549; format: cell-based, human; settings: 72 h, means ± SD, three independent experiments in triplicate, read-out: IC50, A 549
Experimental: as §1, §2, §3

caspase-3/7 in CEM cells = test: Activity of caspases-3/7 in treated CEM cells (Ac-DEVD-AMC substrate); format: cell-based; settings: 24 h, 7.5 μM and 10 μM (FIG. 4)
Experimental: The CEM cells treated with the novel compounds were harvested by centrifugations and homogenized in an extraction buffer (10 mM KCl, 5 mM HEPES, 1 mM EDTA, 1 mM EGTA, 0.2% CHAPS, inhibitors of proteases, pH 7.4) on ice for 20 min. The homogenates were clarified by centrifugation at 10,000 g for […] at 4° C., the proteins were quantified by the Bradford method and diluted to the same concentration. Lysates were then incubated for 1 h with […] Ac-DEVD-AMC as a substrate (Sigma-Aldrich) in an assay buffer (25 mM PIPES, 2 mM EGTA, 2 mM MgCl2, 5 mM DTT, pH 7.3). For negative controls, the lysates were supplemented with […] Ac-DEVD-CHO as a caspase-3/7 inhibitor (Sigma-Aldrich). The fluorescence of the product was measured using a Fluoroskan Ascent microplate reader (Labsystems) at 346/442 nm (ex/em). Here, we determined the activity of caspase-3/7 in CEM cells exposed to 3, 6 or 7 using a fluorogenic substrate Ac-DEVD-AMC and/or caspase 3/7 inhibitor […]. Cells were treated in a dose-dependent manner with compounds 3 (1; 2.5; 5 μM), 6 (0.1; 0.25; 0.5 μM) and 7 (5; 7.5; 10 μM).

leukemia cells (CEM) = test: Western blot analysis of apoptosis related proteins; format: cell-based; settings: 24 h
Experimental: The cells were seeded in a density 2.2×10^4 cells/cm^2 using culture medium in 100-mm culture dishes. Immediately the cells were treated by novel saponins: 3 (1; 2.5; 5 μM), 6 (0.1; 0.25; 0.5 μM) and 7 (5; 7.5; 10 μM). DMSO was used as a vehicle for controls. After 24 h treatment, the cells were washed three times with cold PBS (10 mM, pH 7.4) and lysed in ice-cold protein extract RIPA buffer (20 mM Tris-HCl, pH 7.4, 5 mM EDTA, 2 mM EGTA, 100 mM NaCl, 2 mM NaF, 0.2% Nonidet P-40, 30 mM PMSF, 1 mM DTT, […] of aprotinin and leupeptin). The lysate was collected into microfuge tube and incubated on ice for 1 h. It was then cleared by centrifugation at 10,000×g for […] at 4° C., and supernatant was collected, aliquoted, and stored at −80° C. Proteins in lysates were quantified by the Bradford method and then diluted with Laemmli electrophoresis buffer. Proteins were then separated on 10% or 12% SDS-polyacrylamide gels, transferred onto nitrocellulose membranes (Bio-Rad Laboratories, CA, USA) and stained with Ponceau S to check equal protein loading. The membranes were blocked with 5% (w/v) non-fat dry milk and 0.1% Tween-20 in PBS for 2 h and probed with the specific primary antibodies overnight. After washing in PBS and PBS with 0.1% Tween-20, the membranes were probed with horseradish peroxidase-conjugated secondary antibodies and visualized with chemiluminescent detection reagent West Pico Supersignal (Thermo Fisher Scientific, Rockford, USA). To confirm equal protein loading, immunodetection was performed with the anti-α-tubulin monoclonal antibody. The experiments were repeated three times. The protein expressions in treated cells were compared to untreated controls.

C/C=C/C(=O)OC[C@@H](C)[C@@]1(O)[C@@H](O[C@@H]2OC[C@H](O)[C@H](O[C@@H]3OC[C@@H](O)[C@H](O)[C@H]3OC(=O)c3ccc(OC)cc3)[C@H]2OC(C)=O)C[C@H]2[C@@H]3CC=C4C[C@@H](O)CC[C@]4(C)[C@H]3CC[C@@]21C [Compound 7, (20R)-21-O-[(E)-but-2-enoyl]-20-methylpregn-5-ene-3β,16β,17α,21-tetraol 16-O-{2-O-(4-methoxybenzoyl)-β-D-xylopyranosyl-(1→3)-2′-O-acetyl-α-L-arabinopyranoside}]
IC50 [1]: 890 ± 90 nM
IC50 [2]: 1940 ± 50 nM
IC50 [3]: 550 ± 200 nM
activity of caspase-3/7 compared with the untreated control (caspase-3/7 in CEM cells): threefold increase
PARP (Western blot) (leukemia cells (CEM); dose-dependent (FIG. 5)): cleavage of PARP
antiapoptotic Bcl-2 protein (leukemia cells (CEM); dose-dependent (FIG. 5)): increased
caspase-3 (Western blot) (leukemia cells (CEM); dose-dependent (FIG. 5)): accumulation of caspase-3
expression of tumour suppressor protein p53 (leukemia cells (CEM); dose-dependent (FIG. 5)): enhanced expression
phosphorylation of pRb S780 (leukemia cells (CEM); same concentrations (FIG. 5)): increase of phosphorylation of pRb S780
